Results taken from PubChem BioAssay (NCI).
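A five-concentration, 48-hour dose response in 96-well plates underlies each endpoint, interpolated linearly between surrounding concentrations. TGI marks complete inhibition of growth.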

Legend:
Test in all cases: growth of human tumour cells (NCI), 48 h
[1] = system: A498 renal
[2] = system: BT-549 breast
[3] = system: CAKI-1 renal
[4] = system: HOP-62 NSCLC
[5] = system: MCF7 breast
[6] = system: MOLT-4 leukemia
[7] = system: NCI-H226 lung
[8] = system: NCI-H522 lung
[9] = system: RXF 393 renal
[10] = system: SF-295 CNS
[11] = system: SK-MEL-2 melanoma
[12] = system: SR leukemia
[13] = system: SW-620 colon
[14] = system: UACC-257 melanoma

Row | SMILES | TGI [1] [µM] | TGI [2] [µM] | TGI [3] [µM] | TGI [4] [µM] | TGI [5] [µM] | TGI [6] [µM] | TGI [7] [µM] | TGI [8] [µM] | TGI [9] [µM] | TGI [10] [µM] | TGI [11] [µM] | TGI [12] [µM] | TGI [13] [µM] | TGI [14] [µM]
1 | O=C1c2cc(Cl)ccc2-n2cnnc2C2CSCN12 (stereo not given) | > 100 | > 100 | 46 | > 100 | > 100 | > 100 | > 100 | > 100 | > 100 | > 100 | > 100 | > 100 | > 100 | > 100
2 | CCOc1cc(NC(C)=O)ccc1C(=O)NN1C(=O)C(Cl)C1c1ccccc1 (stereo not given) | 31.7 | 25.6 | 30.1 | 44.4 | 22.9 | 21.3 | 46.3 | 5.82 | 33.5 | 37.1 | 29.9 | 14.3 | 59.6 | 28
3 | [N-]=[N+]=Nc1ccccc1C(=O)N1C(=O)c2ccccc2C(=O)N(C(=O)c2ccccc2N=[N+]=[N-])c2ccccc21 | > 100 | > 100 | > 100 | 81 | > 100 | 50.7 | > 100 | > 100 | 76.6 | > 100 | > 100 | > 100 | > 100 | > 100
4 | CC(C)Cn1cnc2c(NCC(C)O)nc3ccccc3c21 (stereo not given) | > 100 | > 100 | > 100 | > 100 | > 100 | > 100 | > 100 | > 100 | > 100 | > 100 | > 100 | > 100 | > 100 | > 100
5 | Cc1ccc2c(c1)[nH]c(=S)n2/C=C1\C(=O)Oc2ccccc2C1=O | > 100 | > 100 | > 100 | > 100 | > 100 | > 100 | > 100 | > 100 | > 100 | > 100 | > 100 | > 100 | > 100 | > 100
